The results in this text go back to US20240218022A1, “ANTI-VISTA MACROCYCLIC PEPTIDES AND COMPOSITIONS” (BRISTOL-MYERS SQUIBB COMPANY, priority 2022, published 2024).

What is called IC50 is the point on the concentration scale where inhibition reaches its midpoint.

Molecules are shown by their SMILES. Starred links: 1 amine or outer side, 2 acyl side, 3 side chain; linkers in the order of their positions; H or OH if unused. Positions of bridges follow the written chain, without caps; N, C: chain ends. Non-standard residues stand in square brackets, D forms with d. Residues, ends and D or L forms follow the SMILES beside them. Phe(4-CONH2) = NC(=O)c1ccc(C[C@H](N)C(=O)O)cc1; Phe(4-COOH) = N[C@@H](Cc1ccc(C(=O)O)cc1)C(=O)O; γGlu = O=C(O)[C@H](CCC(=O)[*:2])N[*:1]; 4Pal = N[C@@H](Cc1ccncc1)C(=O)O; NMeL = CN[C@@H](CC(C)C)C(=O)O; Ahp(2) = CCCCC[C@H](N)C(=O)O; NMeNle = CCCC[C@H](NC)C(=O)O; Tle = CC(C)(C)[C@H](N)C(=O)O; NMeS = CN[C@@H](CO)C(=O)O; NHexGly = CCCCCCNCC(=O)O; Nle = CCCC[C@H](N)C(=O)O; Aun = NCCCCCCCCCCC(=O)O; Nva = CCC[C@H](N)C(=O)O; AEEA = NCCOCCOCC(=O)O

This assay has as its target T1, mouse VISTA (mVISTA) (Mus musculus, UniProt Q9D659).
T1 construct: expressed in transfected cells; host or cells: Human embryonic kidney 293T cells
T1 sequence (Q9D659 33-308): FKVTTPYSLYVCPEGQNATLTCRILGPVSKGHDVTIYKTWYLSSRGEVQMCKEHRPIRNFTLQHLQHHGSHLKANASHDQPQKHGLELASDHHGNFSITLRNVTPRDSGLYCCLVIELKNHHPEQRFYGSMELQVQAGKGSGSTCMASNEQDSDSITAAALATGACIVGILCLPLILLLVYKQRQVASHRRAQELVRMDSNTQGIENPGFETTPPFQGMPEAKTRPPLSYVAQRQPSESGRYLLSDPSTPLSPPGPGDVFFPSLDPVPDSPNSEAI
Kind of assay: Cell-Based Binding High-Content Assay For mVISTA (HC CBA mVISTA). The note with it: read-out: HC CBA mVISTA IC50. The method in brief:
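293T cells expressing mouse VISTA, with compounds added either after seeding ("no wash") or before seeding and then washed out after 1 h. Biotinylated peptide 2 nM for 30 min at room temperature, then detection with Alexa 647–streptavidin. After fixation with Hoechst stain, plates were high-content imaged; IC50 from four-parameter logistic fit.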
Consider `CCCCCCN1CC(=O)N[C@@H](Cc2ccc(O)cc2)C(=O)N[C@@H](CCCC)C(=O)N[C@@H](CC(N)=O)C(=O)N[C@@H](CCCNC(=N)N)C(=O)N(C)[C@@H](CCCC)C(=O)N[C@@H](CCCCC)C(=O)N2CCC[C@H]2C(=O)N[C@@H](C(C)(C)C)C(=O)N[C@@H](CO)C(=O)N[C@H](C(=O)NCCOCCOCC(=O)N[C@@H](CCC(=O)NCCOCCOCC(=O)NCCCCCCCCCCC(=O)O)C(=O)O)CSCC(=O)N[C@@H](Cc2ccc(C(=O)O)cc2)C(=O)N[C@@H](Cc2c[nH]c3ccccc23)C(=O)N[C@@H](CC(=O)O)C1=O` [compound 2256] ({CH2CO}-[Phe(4-COOH)]WD[NHexGly]Y[Nle]NR[NMeNle][Ahp(2)]P[Tle]SC[AEEA][γGlu][AEEA][Aun]-OH; thioether N-14), for which the half-maximal inhibitory concentration (IC50) is 13.8 nM.

For the molecule `CCCCCCN1CC(=O)N[C@@H](Cc2ccc(O)cc2)C(=O)N[C@@H](CCCC)C(=O)N[C@@H](CC(N)=O)C(=O)N[C@@H](CCCNC(=N)N)C(=O)N(C)[C@@H](CCCC)C(=O)N[C@@H](CCCCC)C(=O)N2CCC[C@H]2C(=O)N[C@@H](C(C)(C)C)C(=O)N[C@@H](CO)C(=O)N[C@H](C(=O)NCCOCCOCC(=O)N[C@@H](CCC(=O)NCCOCCOCC(=O)NCCCCCCCCCCC(=O)O)C(=O)O)CSCC(=O)N[C@@H](Cc2ccncc2)C(=O)N[C@@H](Cc2ccc(O)cc2)C(=O)N[C@@H](CC(=O)O)C1=O` [compound 2257] ({CH2CO}-[4Pal]YD[NHexGly]Y[Nle]NR[NMeNle][Ahp(2)]P[Tle]SC[AEEA][γGlu][AEEA][Aun]-OH; thioether N-14), the IC50 amounted to 40.4 nM.

As to `CCCCCCN1CC(=O)N[C@@H](Cc2ccc(O)cc2)C(=O)N[C@@H](CCC)C(=O)N[C@@H](CC(N)=O)C(=O)N[C@@H](CCCNC(=N)N)C(=O)N(C)[C@@H](CCCC)C(=O)N[C@@H](CCCCC)C(=O)N2CCC[C@H]2C(=O)N[C@@H](C(C)(C)C)C(=O)N[C@@H](CO)C(=O)N[C@H](C(=O)NCCOCCOCC(=O)N[C@@H](CCC(=O)NCCOCCOCC(=O)NCCCCCCCCCCC(=O)O)C(=O)O)CSCC(=O)N[C@@H](Cc2ccccc2)C(=O)N[C@@H](Cc2c[nH]c3ccccc23)C(=O)N[C@@H](CC(=O)O)C1=O` [compound 2258] ({CH2CO}-FWD[NHexGly]Y[Nva]NR[NMeNle][Ahp(2)]P[Tle]SC[AEEA][γGlu][AEEA][Aun]-OH; thioether N-14), the IC50 turned out to be 36.9 nM. For `CCCCCCN1CC(=O)N[C@@H](Cc2ccc(O)cc2)C(=O)N[C@@H](CCCC)C(=O)N[C@@H](CC(N)=O)C(=O)N[C@@H](CCCNC(=N)N)C(=O)N(C)[C@@H](CCCC)C(=O)N[C@@H](CCCCC)C(=O)N2CCC[C@H]2C(=O)N[C@@H](C(C)(C)C)C(=O)N[C@@H](CO)C(=O)N[C@H](C(=O)NCCOCCOCC(=O)N[C@@H](CCC(=O)NCCOCCOCC(=O)NCCCCCCCCCCC(=O)O)C(=O)O)CSCC(=O)N[C@@H](Cc2ccc(C(N)=O)cc2)C(=O)N[C@@H](Cc2ccc(O)cc2)C(=O)N[C@@H](CC(=O)O)C1=O` [compound 2259] ({CH2CO}-[Phe(4-CONH2)]YD[NHexGly]Y[Nle]NR[NMeNle][Ahp(2)]P[Tle]SC[AEEA][γGlu][AEEA][Aun]-OH; thioether N-14) the value was 38.1 nM. For `CCCCCCN1CC(=O)N[C@@H](Cc2ccc(O)cc2)C(=O)N[C@@H](CC(C)C)C(=O)N[C@@H](CC(N)=O)C(=O)N[C@@H](CCCNC(=N)N)C(=O)N(C)[C@@H](CCCC)C(=O)N[C@@H](CCCCC)C(=O)N2CCC[C@H]2C(=O)N[C@@H](C(C)(C)C)C(=O)N[C@@H](CO)C(=O)N[C@H](C(=O)NCCOCCOCC(=O)N[C@@H](CCC(=O)NCCOCCOCC(=O)NCCCCCCCCCCC(=O)O)C(=O)O)CSCC(=O)N[C@@H](Cc2ccccc2)C(=O)N[C@@H](Cc2ccc(O)cc2)C(=O)N[C@@H](CC(=O)O)C1=O` [compound 2260] ({CH2CO}-FYD[NHexGly]YLNR[NMeNle][Ahp(2)]P[Tle]SC[AEEA][γGlu][AEEA][Aun]-OH; thioether N-14) the value was 16 nM. Consider `CCCCCCN1CC(=O)N[C@@H](Cc2ccc(O)cc2)C(=O)N[C@@H](CC(C)C)C(=O)N[C@@H](CC(N)=O)C(=O)N[C@@H](CCCNC(=N)N)C(=O)N(C)[C@@H](CCCC)C(=O)N[C@@H](CCCCC)C(=O)N2CCC[C@H]2C(=O)N[C@@H](C(C)(C)C)C(=O)N[C@@H](CC(=O)O)C(=O)N[C@H](C(=O)NCCOCCOCC(=O)N[C@@H](CCC(=O)NCCOCCOCC(=O)NCCCCCCCCCCC(=O)O)C(=O)O)CSCC(=O)N[C@@H](Cc2ccccc2)C(=O)N[C@@H](Cc2ccc(O)cc2)C(=O)N[C@@H](CC(=O)O)C1=O` [compound 2261] ({CH2CO}-FYD[NHexGly]YLNR[NMeNle][Ahp(2)]P[Tle]DC[AEEA][γGlu][AEEA][Aun]-OH; thioether N-14), for which the IC50 was determined as 23.8 nM. Turning to `CCCCCCN1CC(=O)N[C@@H](Cc2ccc(O)cc2)C(=O)N[C@@H](CC(C)C)C(=O)N[C@@H](CC(N)=O)C(=O)N[C@@H](CCCNC(=N)N)C(=O)N(C)[C@@H](CO)C(=O)N[C@@H](CCCCC)C(=O)N2CCC[C@H]2C(=O)N[C@@H](C(C)(C)C)C(=O)N[C@@H](CO)C(=O)N[C@H](C(=O)NCCOCCOCC(=O)N[C@@H](CCC(=O)NCCOCCOCC(=O)NCCCCCCCCCCC(=O)O)C(=O)O)CSCC(=O)N[C@@H](Cc2ccccc2)C(=O)N[C@@H](Cc2ccc(O)cc2)C(=O)N[C@@H](CC(=O)O)C1=O` [compound 2262] ({CH2CO}-FYD[NHexGly]YLNR[NMeS][Ahp(2)]P[Tle]SC[AEEA][γGlu][AEEA][Aun]-OH; thioether N-14), the 50% inhibitory concentration (IC50) was determined as 39.8 nM. With `CCCCCCN1CC(=O)N[C@@H](Cc2ccc(O)cc2)C(=O)N[C@@H](CC(C)C)C(=O)N[C@@H](CC(N)=O)C(=O)N[C@@H](CCCNC(=N)N)C(=O)N(C)[C@@H](CC(C)C)C(=O)N[C@@H](CCCCC)C(=O)N2CCC[C@H]2C(=O)N[C@@H](C(C)(C)C)C(=O)N[C@@H](CO)C(=O)N[C@H](C(=O)NCCOCCOCC(=O)N[C@@H](CCC(=O)NCCOCCOCC(=O)NCCCCCCCCCCC(=O)O)C(=O)O)CSCC(=O)N[C@@H](Cc2ccccc2)C(=O)N[C@@H](Cc2c[nH]c3ccccc23)C(=O)N[C@@H](CC(=O)O)C1=O` [compound 2263] ({CH2CO}-FWD[NHexGly]YLNR[NMeL][Ahp(2)]P[Tle]SC[AEEA][γGlu][AEEA][Aun]-OH; thioether N-14), the IC50 is 25.1 nM. For `CCCCCCN1CC(=O)N[C@@H](Cc2ccc(O)cc2)C(=O)N[C@@H](CC(C)C)C(=O)N[C@@H](CC(N)=O)C(=O)N[C@@H](CCCNC(=N)N)C(=O)N(C)[C@@H](CO)C(=O)N[C@@H](CCCCC)C(=O)N2CCC[C@H]2C(=O)N[C@@H](C(C)(C)C)C(=O)N[C@@H](CC(=O)O)C(=O)N[C@H](C(=O)NCCOCCOCC(=O)N[C@@H](CCC(=O)NCCOCCOCC(=O)NCCCCCCCCCCC(=O)O)C(=O)O)CSCC(=O)N[C@@H](Cc2ccccc2)C(=O)N[C@@H](Cc2c[nH]c3ccccc23)C(=O)N[C@@H](CC(=O)O)C1=O` [compound 2264] ({CH2CO}-FWD[NHexGly]YLNR[NMeS][Ahp(2)]P[Tle]DC[AEEA][γGlu][AEEA][Aun]-OH; thioether N-14) the value was 24.7 nM. Take `CCCCCCN1CC(=O)N[C@@H](Cc2ccc(O)cc2)C(=O)N[C@@H](CC(C)C)C(=O)N[C@@H](CC(N)=O)C(=O)N[C@@H](CCCNC(=N)N)C(=O)N(C)[C@@H](CCCC)C(=O)N[C@@H](CCCCC)C(=O)N2CCC[C@H]2C(=O)N[C@@H](C(C)(C)C)C(=O)N[C@@H](CC(=O)O)C(=O)N[C@H](C(=O)NCCOCCOCC(=O)N[C@@H](CCC(=O)NCCOCCOCC(=O)NCCCCCCCCCCC(=O)O)C(=O)O)CSCC(=O)N[C@@H](Cc2ccccc2)C(=O)N[C@@H](Cc2c[nH]c3ccccc23)C(=O)N[C@@H](CC(=O)O)C1=O` [compound 2265] ({CH2CO}-FWD[NHexGly]YLNR[NMeNle][Ahp(2)]P[Tle]DC[AEEA][γGlu][AEEA][Aun]-OH; thioether N-14): the half-inhibitory concentration (IC50) was found to be 17.8 nM.

For the molecule `CCCCCCN1CC(=O)N[C@@H](Cc2ccc(O)cc2)C(=O)N[C@@H](CC(C)C)C(=O)N[C@@H](CC(N)=O)C(=O)N[C@@H](CCCNC(=N)N)C(=O)N(C)[C@@H](CO)C(=O)N[C@@H](CCCCC)C(=O)N2CCC[C@H]2C(=O)N[C@@H](C(C)(C)C)C(=O)N[C@@H](CO)C(=O)N[C@H](C(=O)NCCOCCOCC(=O)N[C@@H](CCC(=O)NCCOCCOCC(=O)NCCCCCCCCCCC(=O)O)C(=O)O)CSCC(=O)N[C@@H](Cc2ccccc2)C(=O)N[C@@H](Cc2c[nH]c3ccccc23)C(=O)N[C@@H](CC(=O)O)C1=O` [compound 2266] ({CH2CO}-FWD[NHexGly]YLNR[NMeS][Ahp(2)]P[Tle]SC[AEEA][γGlu][AEEA][Aun]-OH; thioether N-14), the concentration for half-maximal inhibition (IC50) was determined as 37.9 nM. As for `CCCCCCN1CC(=O)N[C@@H](Cc2ccc(O)cc2)C(=O)N[C@@H](CC(C)C)C(=O)N[C@@H](CC(N)=O)C(=O)N[C@@H](CCCNC(=N)N)C(=O)N(C)[C@@H](CC(C)C)C(=O)N[C@@H](CCCCC)C(=O)N2CCC[C@H]2C(=O)N[C@@H](C(C)(C)C)C(=O)N[C@@H](CC(=O)O)C(=O)N[C@H](C(=O)NCCOCCOCC(=O)N[C@@H](CCC(=O)NCCOCCOCC(=O)NCCCCCCCCCCC(=O)O)C(=O)O)CSCC(=O)N[C@@H](Cc2ccccc2)C(=O)N[C@@H](Cc2ccc(O)cc2)C(=O)N[C@@H](CC(=O)O)C1=O` [compound 2267] ({CH2CO}-FYD[NHexGly]YLNR[NMeL][Ahp(2)]P[Tle]DC[AEEA][γGlu][AEEA][Aun]-OH; thioether N-14), the IC50 came out at 28.9 nM.
